For 15 compounds, IC50 and inhibition results are on record in patent US8399465B2, “Compounds with two fused bicyclic heteroaryl moieties as modulators of leukotriene A4 hydrolase” (Janssen Pharmaceutica NV, priority 2009, dated 2013).

The term IC50 denotes the concentration at which inhibition is half-maximal.

Test [1] concerns the target T1, recombinant human LTA4 hydrolase (rhLTA4H) (Homo sapiens, UniProt P09960).
T1 construct: made in house; host or cells: Spodoptera frugiperda (Sf-9) cells, baculovirus (pFastBac1)
T1 sequence (P09960 1-611): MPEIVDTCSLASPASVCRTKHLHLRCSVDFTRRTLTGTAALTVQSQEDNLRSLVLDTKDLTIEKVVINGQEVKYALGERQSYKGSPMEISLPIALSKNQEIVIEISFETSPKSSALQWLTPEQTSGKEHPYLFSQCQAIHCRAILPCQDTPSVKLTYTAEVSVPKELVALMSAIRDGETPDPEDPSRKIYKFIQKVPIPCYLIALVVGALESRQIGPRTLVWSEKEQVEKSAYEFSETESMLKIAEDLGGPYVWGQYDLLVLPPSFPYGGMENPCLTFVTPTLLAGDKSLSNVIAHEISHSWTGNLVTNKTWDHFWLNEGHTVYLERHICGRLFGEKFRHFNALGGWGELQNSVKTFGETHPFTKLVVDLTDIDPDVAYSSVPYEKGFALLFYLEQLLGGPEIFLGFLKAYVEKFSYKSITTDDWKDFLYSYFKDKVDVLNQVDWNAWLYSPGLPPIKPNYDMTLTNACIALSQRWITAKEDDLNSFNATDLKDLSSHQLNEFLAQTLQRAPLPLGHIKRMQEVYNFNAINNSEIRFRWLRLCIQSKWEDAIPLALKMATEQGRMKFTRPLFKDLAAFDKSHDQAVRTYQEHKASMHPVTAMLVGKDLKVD
Description: Recombinant human LTA4 hydrolase assay for LTA4 hydrolase inhibitor activity. The format is biochemical. In outline: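 LTB4 formation, measured by enzyme immunoassay, was the read-out. The enzyme, recombinant human LTA4H expressed in Sf-9 insect cells (10 ng per reaction), was exposed to compound for 10 min at room temperature before hydrolysed-ester LTA4 substrate was added for 30 min. Enzyme-free negatives were included.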

Test [2] has as its system LTB4 production in murine blood (LTA4H). Description: LTB4 production by calcium ionophore-stimulated murine blood for LTA4H inhibitor activity. The format is cell-based, CD-1 mice. As to conditions: Mus musculus; murine blood diluted 1 in 15, A23187 stimulated; single determination or average; mark after value = form tested: ′ free base, ″ hydrochloride, ^ formate; read-out: IC50. In outline: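 LTB4 was measured by ELISA in supernatants after calcium ionophore A23187 stimulation (final 7 μg/mL, 30 min, 37° C) of CD-1 mouse blood collected on heparin. Compound was preincubated with the blood for 15 min beforehand. Values come from one determination or average several.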

Test [3] deals with arachidonic acid-induced neutrophil influx in murine ear tissue. Nature of the test: Murine arachidonic acid-induced inflammation model: neutrophil influx (myeloperoxidase) in ear. The format is in vivo, Balb/c mice. The note with it: Mus musculus, read-out: % Inh. MPO. The procedure:
(§1) Assay 3: Murine Arachidonic Acid-Induced Inflammation Model
(§2) LTA4H inhibitor compounds of the present invention were dissolved in 20% cyclodextran/H2O at a concentration of 3 mg/mL. The solutions were administered by oral gavage to female Balb/c mice weighing approximately 20 grams each (0.2 mL per mouse, 30 mg of LTA4H inhibitor compound per kg). Sixty minutes after being administered an LTA4 inhibitor, each mouse received topical application of 20 μL of arachidonic acid (100 mg/mL in acetone) to the left ear and 20 μL of acetone only to the right ear. After 3 h, the mice were sacrificed, blood was withdrawn in heparinized syringes, and 8 mm ear biopsies were taken. Ear biopsies were weighed to determine edema and then frozen at −80° C. until needed for determination of neutrophil influx.
Neutrophil influx was quantified by measuring the activity of myeloperoxidase (MPO), a neutrophil-specific enzyme. […] Debris was removed by centrifugation at 14000×g for 10 min. […] The microtiter plate contents were held at room temperature until the sample with the highest concentration of MPO reached an absorbance value of 0.4 at 650 nm. The reaction was stopped by addition of 50 μL 1 M H2SO4 to each sample well, and the myeloperoxidase activity in each sample was determined from the absorbance at […]. The background value from the right ear, treated only with acetone, was subtracted from that for the left ear, treated with arachidonic acid in acetone, for each animal. The percent inhibition of neutrophil influx (% Inh. MPO) by compounds of the invention was determined by comparison to animals treated identically, except that the solution administered by oral gavage was devoid of inhibitor compound. All compounds were assayed in their free base form.

For test [4], the system named is ex vivo calcium ionophore-stimulated LTB4 production in whole blood. Nature of the test: Murine arachidonic acid-induced inflammation model: ex vivo stimulated LTB4 production in blood. On the set-up: species or system Balb/c mice. The note with it: Mus musculus; 30 mg/kg oral gavage; blood diluted 1:1, A23187 stimulated ex vivo; percent inhibition of LTB4 production; read-out: % Inh. LTB4. The procedure:
as §1, §2
The microtiter plate contents were incubated for 30 min at 37° C. in a humidified incubator. The reaction was terminated by centrifugation (833×g, 10 min at 4° C.). Supernatants were analyzed for LTB4 by a commercially available enzyme-linked immunoassay (Cayman Chemical Co.) in accordance with the manufacturer's instructions. The percent inhibition of ex vivo stimulated LTB4 production (% Inh. LTB4) was determined by comparison to animals treated identically except that the solution administered by oral gavage was devoid of inhibitor compound.

[5] abbreviates: rhLTA4H, LTB4 by immunoassay, single determination or average of two or more, mark after value = form tested: ′ free base, ″ hydrochloride, ^ formate, read-out: IC50.
Where [6] appears, read: 30 mg/kg oral gavage, 60 min before topical arachidonic acid, ear biopsy after 3 h, percent inhibition of neutrophil influx.

Molecules are shown by their SMILES. Where a name gives a salt, the structure may show the parent alone. Read-outs that look alike come from different tables or passages of the source.

In the case of `NC(=O)N1C[C@@H]2CC[C@H]1CN2Cc1coc2cc(Oc3nc4ncccc4s3)ccc12` [Example 241, (1S,4S)-5-[6-(Thiazolo[4,5-b]pyridin-2-yloxy)-benzofuran-3-ylmethyl]-2,5-diaza-bicyclo[2.2.2]octane-2-carboxylic acid amide formate], the values for the IC50 in test [1] (setting [5]) and in test [2] were 4 nM and 69 nM, respectively. The inhibition at 30 mg/kg in test [3] (Neutrophil) turned out to be 85%; in test [4], 77%.
In the case of `CC(=O)N[C@H]1C[C@@H]2C[C@H]1CN2Cc1coc2cc(Oc3nc4ncccc4s3)ccc12` [Example 187, (1S,4S,5S)—N-{2-[6-(Thiazolo[4,5-b]pyridin-2-yloxy)-benzofuran-3-ylmethyl]-2-aza-bicyclo[2.2.1]hept-5-yl}-acetamide], the IC50 in test [1] (setting [5]) is 1 nM; in test [2], 21 nM. For the same compound, the inhibition at 30 mg/kg in test [3] (setting [6]) was 88%; in test [4] it was 83%.
The like results for `NC(=O)N1CC2CCC(C1)N2C(=O)c1coc2cc(Oc3nc4ncccc4s3)ccc12` [Example 374, meso-8-[6-(Thiazolo[4,5-b]pyridin-2-yloxy)-benzofuran-3-carbonyl]-3,8-diaza-bicyclo[3.2.1]octane-3-carboxylic acid amide] were, in that order, 11 nM, 50 nM, 37% and 7%.
For `CC(=O)NC1CCN(Cc2coc3cc(Oc4nc5ncccc5s4)ccc23)CC1` [Example 197, N-{1-[6-(Thiazolo[4,5-b]pyridin-2-yloxy)-benzofuran-3-ylmethyl]-piperidin-4-yl}-acetamide formate], the IC50 in test [1] (setting [5]) turned out to be 4 nM; in test [2], 15 nM. Besides, the inhibition at 30 mg/kg in test [3] (Neutrophil) came out at 92%; in test [4] it was 91%.
For the compound `CC(=O)N[C@H]1C[C@H]2CC[C@@H](C1)N2Cc1coc2cc(Oc3nc4ncccc4s3)ccc12` [Example 155, meso-endo-N-{8-[6-(Thiazolo[4,5-b]pyridin-2-yloxy)-benzofuran-3-ylmethyl]-8-aza-bicyclo[3.2.1]oct-3-yl}-acetamide], the IC50 stood at 2 nM in test [1] and 9 nM in test [2]. The inhibition at 30 mg/kg in test [3] (setting [6]) stood at 88%; in test [4] it was 85%.
Regarding `NC(=O)N1C[C@H]2C[C@@H]1CN2Cc1cc2cc(Oc3nc4ncccc4s3)ccc2o1` [Example 101, (1R,4R)-5-[5-(Thiazolo[4,5-b]pyridin-2-yloxy)-benzofuran-2-ylmethyl]-2,5-diaza-bicyclo[2.2.1]heptane-2-carboxylic acid amide], the IC50 in test [1] (setting [5]) is 52 nM; in test [2], 202 nM. The inhibition at 30 mg/kg in test [3] (setting [6]) is 65%; in test [4] it was 53%.
`CN(Cc1ccncc1)Cc1coc2cc(Oc3nc4ncccc4s3)ccc12` [Example 177, Methyl-pyridin-4-ylmethyl-[6-(thiazolo[4,5-b]pyridin-2-yloxy)-benzofuran-3-ylmethyl]-amine]: the IC50 in test [1] (setting [5]) is 13 nM; in test [2], 110 nM. For the same compound, the inhibition at 30 mg/kg in test [3] (setting [6]) stood at 12%; in test [4], 70%.
Take `CC(=O)N[C@H]1C[C@@H]2C[C@H]1CN2Cc1cc2ccc(Oc3nc4ncccc4s3)cc2o1` [Example 189, (1S,4S,5S)—N-{2-[6-(Thiazolo[4,5-b]pyridin-2-yloxy)-benzofuran-2-ylmethyl]-2-aza-bicyclo[2.2.1]hept-5-yl}-acetamide]: the figures for the IC50 in test [1] (setting [5]) and in test [2] were 3 nM and 70 nM, respectively. The inhibition at 30 mg/kg was determined as 84% in test [3] (setting [6]) and 76% in test [4].
On the same counts, the results for `CS(=O)(=O)NC1CCN(Cc2coc3cc(Oc4nc5ncccc5s4)ccc23)CC1` [Example 244, N-{1-[6-(Thiazolo[4,5-b]pyridin-2-yloxy)-benzofuran-3-ylmethyl]-piperidin-4-yl}-methanesulfonamide] are 5 nM, 24 nM, 89% and 80.7%.
Regarding `NC(=O)C1CCCN(Cc2coc3cc(Oc4nc5ncccc5s4)ccc23)C1` (stereo in doubt) [Example 216, (3S)-1-[6-(Thiazolo[4,5-b]pyridin-2-yloxy)-benzofuran-3-ylmethyl]-piperidine-3-carboxylic acid amide], the concentration for half-maximal inhibition (IC50) amounted to 3 nM in test [1] (setting [5]) and 28 nM in test [2]. The inhibition at 30 mg/kg in test [3] (setting [6]) and in test [4] was 87% in each case.
Consider `CC(=O)N1C[C@H]2C[C@@H]1CN2Cc1coc2cc(Oc3nc4ncccc4s3)ccc12` [Example 157, (1R,4R)-1-{5-[6-(Thiazolo[4,5-b]pyridin-2-yloxy)-benzofuran-3-ylmethyl]-2,5-diaza-bicyclo[2.2.1]hept-2-yl}-ethanone], for which the IC50 was 8 nM in test [1] (setting [5]) and 16 nM in test [2]. Further, the inhibition at 30 mg/kg in test [3] (setting [6]) came out at 93%; in test [4], 97%.
Take `CC(=O)N1C[C@@H]2C[C@H]1CN2Cc1coc2cc(Oc3nc4ncccc4s3)ccc12` [Example 154, (1S,4S)-1-{5-[6-(Thiazolo[4,5-b]pyridin-2-yloxy)-benzofuran-3-ylmethyl]-2,5-diaza-bicyclo[2.2.1]hept-2-yl}-ethanone]: the results for the IC50 in test [1] (setting [5]) and in test [2] were 7 nM and 26 nM, respectively. The inhibition at 30 mg/kg in test [3] (setting [6]) and in test [4] was 83% throughout.
As to `c1cnc2nc(Oc3ccc4c(CN5CCOCC5)coc4c3)sc2c1` [Example 156, 2-(3-Morpholin-4-ylmethyl-benzofuran-6-yloxy)-thiazolo[4,5-b]pyridine], the half-maximal inhibitory concentration (IC50) in test [1] (setting [5]) is 17 nM; in test [2] it was 21 nM. For the same compound, the inhibition at 30 mg/kg amounted to 86% in test [3] (setting [6]) and 91% in test [4].
On the same counts, the results for `CC(=O)N[C@H]1C[C@H]2CC[C@@H](C1)N2Cc1cc2ccc(Oc3nc4ncccc4s3)cc2o1` [Example 118, meso-endo-N-{8-[6-(Thiazolo[4,5-b]pyridin-2-yloxy)-benzofuran-2-ylmethyl]-8-aza-bicyclo[3.2.1]oct-3-yl}-acetamide] are 23 nM, 50 nM, 97% and 89%.
The like results for `c1cnc2nc(Oc3ccc4oc(CN5C[C@@H]6C[C@H]5CO6)cc4c3)sc2c1` [Example 99, (1S,4S)-2-[2-(2-Oxa-5-aza-bicyclo[2.2.1]hept-5-ylmethyl)-benzofuran-5-yloxy]-thiazolo[4,5-b]pyridine] were, in that order, 37 nM, 63 nM, 58% and 15%.
